Reference: patent US20130102683A1, “MELT-GRANULATED FINGOLIMOD” (RATIOPHARM GMBH, priority 2010, published 2013)
Where a name gives a salt, the structure may show the parent alone.

Assay: Water adsorption of fingolimod salts under set atmospheric humidity (hygrostat)
Assay type: physicochemical
Conditions: atmospheric humidity set at 75% by means of a hygrostat; after 2 weeks
Text: In addition, experiments on various salts of fingolimod have shown that depending on the ambient conditions, the possibility of water adsorption exists. […] Water adsorption on this scale is detrimental to the storage stability of dosage forms containing fingolimod, especially in the case of tablets, granules or powders.

increase of water content: 7 fold
SMILES: CCCCCCCCc1ccc(CCC(N)(CO)CO)cc1 [hydrochloride of fingolimod]
